From US10703698B2, “Compounds which activate estrogen receptors and compositions and methods of using the same” (The Board of Trustees of the University of Illinois, priority 2016, dated 2020)
Entries after “also recorded” stand apart in the source; their conditions may differ.

How the values were obtained:
MCF-7 cells [1] = assay: MCF-7 cell proliferation, WST-1 assay; assay type: cell-based, human; conditions: 6 days
Method: Cells were seeded at 1000 cells/well in 96-well plates.

ERα-SRC3 interaction = target: T1, ERα-SRC3 interaction (Homo sapiens, UniProt P03372); assay: co-immunoprecipitation of ERα and SRC3 in MCF-7 cells; assay type: cell-based; conditions: 10 nM E2 or 1 μM PaPE-1, 1 h
T1 construct: endogenous in cells; host or cells: MCF-7
T1 sequence (P03372 1-595): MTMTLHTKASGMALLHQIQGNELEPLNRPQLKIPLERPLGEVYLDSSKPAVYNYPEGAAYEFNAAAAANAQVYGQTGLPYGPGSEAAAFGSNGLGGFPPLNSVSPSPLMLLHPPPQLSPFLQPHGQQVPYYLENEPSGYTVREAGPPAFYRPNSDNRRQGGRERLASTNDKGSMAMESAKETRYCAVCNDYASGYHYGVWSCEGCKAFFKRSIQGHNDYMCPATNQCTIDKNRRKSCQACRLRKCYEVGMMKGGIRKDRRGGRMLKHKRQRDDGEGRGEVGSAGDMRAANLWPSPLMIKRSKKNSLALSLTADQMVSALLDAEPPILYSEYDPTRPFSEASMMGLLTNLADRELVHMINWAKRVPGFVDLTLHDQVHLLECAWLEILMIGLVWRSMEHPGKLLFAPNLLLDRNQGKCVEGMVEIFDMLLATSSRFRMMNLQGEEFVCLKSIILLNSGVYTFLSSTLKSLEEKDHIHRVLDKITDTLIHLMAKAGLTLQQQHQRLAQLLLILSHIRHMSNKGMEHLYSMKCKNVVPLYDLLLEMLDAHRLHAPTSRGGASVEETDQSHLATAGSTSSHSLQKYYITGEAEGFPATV
Text: FIG. 10. Estrogen receptor and coactivator binding and interaction assays with ligands and ligand dissociation rates. […] After ligand treatment, cell lysates were immunoprecipitated with antibody to SRC3 or control IgG, and immunoprecipitates were separated on SDS PAGE gels and blotted for ERα using anti-ERα antibody. […] For details, see methods below.
(§1) Western blot analysis used specific antibodies for ERα (HC-20, Santa Cruz); ERK2 (D-2, Santa Cruz); and pS^6, pS6K, pmTOR, pRAPTOR, pRICTOR, pMAPK (Cell Signaling). Coimmunoprecipitation assays used antibodies for SRC3 (Santa Cruz, C-20) and ERα (Santa Cruz, F10).

mTOR and MAPK signaling = assay: Western blot of signaling pathway activation in MCF-7 cells; assay type: cell-based, human
Text: as §1

[2] = system: ERα knock-out (ERKO) C57BL/6 mice; assay: effects in ERα knock-out (ERKO) mice; assay type: in vivo; conditions: 3 weeks; listed as PaPE-1
Method: FIG. 13. Effects of PaPE-1 require ERα. […] Animals were on normal chow diet. Change in body weight was monitored. (B) Uterus weights of animals from (A) at the end of 3 weeks of vehicle (Veh) or ligand treatment. (C) Triglyceride levels in the blood of animals from (A) after 3 weeks of ligand exposure.
Studies used wild type and ERα knockout mice in C57BL/6 background. All experiments involving animals were conducted in accordance with National Institutes of Health standards for the use and care of animals, with protocols approved by the University of Illinois at Urbana-Champaign and the University of Texas Southwestern Medical Center. Wild-type C57BL/6 mice were purchased from Jackson Laboratories/National Cancer Institute. ERα knockout mice with complete excision of ERα and wild type littermates were obtained from Taconic and were used as described previously in Dupont et al., Development, 127, 4277-4291, […], and Hewitt et al. FASEB J., 24, 4660-4667, 2010.

eNOS = eNOS activation in primary endothelial cells (14C-L-arginine to 14C-L-citrulline); assay type: cell-based, bovine; conditions: 15 min; 10 nM ligand (FIG. 9E)
MCF-7 cells [3] = assay: RNA-Seq of MCF-7 cells treated with OA with and without PaPE-1; assay type: cell-based, human
Method: FIG. 38. Identification of genes induced by OA and PaPE-1's effect on the gene regulation. (A) RNA-Seq analysis of gene expression changes induced by OA and OA+PaPE1. Heat map of the genes with significant changed expression. MCF-7 cells were treated with Veh or 100 nM OA with and without 1 μM PaPE-1 for 24 h. RNA was isolated and RNA-Seq was performed using 2 samples from each treatment group. Differentially regulated genes were determined with p<0.05 and expression fold change >2. (B) Clusters from A. regulated by OA and reversed by PaPE-1. The average gene expression level of the cluster1 (C1) and 2 (C2) identified as PaPE-1 regulated high-fat genes. In C1, there are 425 genes whose expression were found stimulated in OA but not in the OA+PaPE-1 treatment. In C2, there are 646 genes whose expression were found suppressed in the OA but restored by OA+PaPE-1 treatment. (C) Venn diagram analysis. […] (D) Examples of OA-regulated genes. Some of the top functions of the involved genes are presented.

MCF-7 cells [4] = assay: Seahorse cell metabolic phenotype assays in MCF-7 cells; assay type: cell-based, human; conditions: 24 hours; listed as PaPE-1
[5] = system: ovariectomized C57BL/6 mice; conditions: mouse, in vivo
LRRC54 gene = assay: LRRC54 (non-genomic gene) mRNA expression, qPCR; conditions: for LRRC54 (non-genomic gene) mRNA expression, in words: MCF-7 cells, 1 μM PaPE or 10 nM E2 for 4 h where stated, versus vehicle, E2 or compound 2
[6] = system: ovariectomized C57BL/6 mice; assay: stroke model, transient middle cerebral artery occlusion (tMCAo)

## Cc1cc(-c2ccc3c(c2)CCC3O)cc(C)c1O (racemic) [Compound 2, 5-(4-hydroxy-3,5-dimethylphenyl)-2,3-dihydro-1H-inden-1-ol]
MCF-7 cells [1]
  proliferation of MCF-7 cells: did not stimulate proliferation
ERα-SRC3 interaction
  coimmunoprecipitation of ERα with SRC3: no coimmunoprecipitated complexes were observed
mTOR and MAPK signaling
  Serl 18 phosphorylation of ERα: did not induce any detectable
mTOR and MAPK signaling; listed as PaPE-1
  activation of mTOR, MAPK (and AKT) signaling: very efficient in activating mTOR and MAPK signaling; also recorded: selectively activated mTOR and MAPK signaling
[2]
  ability to diminish body weight gain after ovariectomy in ERKO mice: lost in the ERKO mice; also recorded: require ERα
eNOS
  eNOS / NOS activity: comparable response
MCF-7 cells [3]
  cluster C1: genes stimulated in OA but not in OA+PaPE-1: 425 genes
  cluster C2: genes suppressed in OA but restored by OA+PaPE-1: 646 genes
MCF-7 cells [3]; 1 μM PaPE-1
  OA-downregulated genes whose expression was restored by PaPE-1: about 60%
  OA-upregulated genes whose activation was blocked by PaPE-1: 80%
MCF-7 cells [4]
  OA-induced glycolytic and aerobic respiration with PaPE-1: reversed by PaPE-1 treatment; also recorded: normalized by adding PaPE-1
[5]
  uterine wet weight: no effect
LRRC54 gene; FIG. 14
  LRRC54 activation, fold higher level than E2: 1.9 fold
LRRC54 gene
  LRRC54 (non-genomic gene) mRNA expression, in words: equivalent activities
LRRC54 gene; listed as PaPE-1
  LRRC54 (non-genomic gene) mRNA expression, in words: LRRC54 stimulation
[6]; 3 and 7 days
  severity of CNS injury on MRI: decreased compared with control treatment
[6]; 3d and 7d post-tMCAo, compared with vehicle
  infarct volumes: significantly reduced infarct volumes
[6]; 3 days post-stroke
  degree of swelling associated with the injury: attenuated
  reduction of leukocytes infiltrated in the brain: 93%
[6]; 6d post-tMCAo
  rotorod functional recovery, of baseline: 85%
[6]; 13d post-tMCAo
  rotorod functional recovery, of baseline: 82%
[6]; mouse, in vivo
  rotorod function post-stroke, in words: improved function post-stroke
